Measured values as given in US11491150B2, “Organic compounds” (INTRA-CELLULAR THERAPIES, INC., priority 2017, dated 2022).
Read-outs that look alike come from different tables or passages of the source.

Columns and labels:
[1] = Pharmacokinetic study, brain penetrability after oral administration; type: in vivo; settings: mouse, male C57B1/6 mice, oral 10 mg/kg, t=2 h
Description: The pharmacokinetic (PK) study of compounds are performed in male C57B1/6 mice (n=3 per time point) after an oral administration at 10 mg/kg to evaluate the brain penetrability. The concentrations of representative Compound 16 in brain and plasma are 0.15 μM and 0.2 μM at time t=2 h, respectively. The tmax of Compound Q is probably longer than 2 h.

muscle-type nAChRs = test: Binding at 10 μM to muscle-type nAChRs (selectivity test)
Description: (§1) The selectivity of these compounds is measured on the neuronal α4β2 and the muscle-type nAChRs using methods known in the art.

neuronal α4β2 nAChR = neuronal α4β2 nAChR (Homo sapiens, UniProt P17787+P43681); test: Binding at 10 μM to neuronal α4β2 nAChR (selectivity test)
Sequence of neuronal α4β2 nAChR (P43681 29-627 limits assumed): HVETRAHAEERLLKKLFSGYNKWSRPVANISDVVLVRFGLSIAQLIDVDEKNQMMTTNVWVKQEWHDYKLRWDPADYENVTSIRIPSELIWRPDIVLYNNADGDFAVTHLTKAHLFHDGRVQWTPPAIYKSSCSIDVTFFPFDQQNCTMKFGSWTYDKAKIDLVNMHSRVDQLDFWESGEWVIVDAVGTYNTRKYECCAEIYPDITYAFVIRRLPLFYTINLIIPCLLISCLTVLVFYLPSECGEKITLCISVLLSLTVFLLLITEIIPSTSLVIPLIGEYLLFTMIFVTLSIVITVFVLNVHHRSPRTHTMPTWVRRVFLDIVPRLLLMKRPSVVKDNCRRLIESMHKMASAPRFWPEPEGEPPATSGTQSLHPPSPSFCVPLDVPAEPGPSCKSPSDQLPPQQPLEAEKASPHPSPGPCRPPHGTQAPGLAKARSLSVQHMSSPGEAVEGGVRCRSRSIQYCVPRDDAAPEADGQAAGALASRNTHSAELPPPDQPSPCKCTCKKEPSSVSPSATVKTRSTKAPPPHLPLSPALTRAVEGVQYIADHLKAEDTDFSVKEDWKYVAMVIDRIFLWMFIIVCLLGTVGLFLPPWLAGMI
Sequence of neuronal α4β2 nAChR (P17787 26-502): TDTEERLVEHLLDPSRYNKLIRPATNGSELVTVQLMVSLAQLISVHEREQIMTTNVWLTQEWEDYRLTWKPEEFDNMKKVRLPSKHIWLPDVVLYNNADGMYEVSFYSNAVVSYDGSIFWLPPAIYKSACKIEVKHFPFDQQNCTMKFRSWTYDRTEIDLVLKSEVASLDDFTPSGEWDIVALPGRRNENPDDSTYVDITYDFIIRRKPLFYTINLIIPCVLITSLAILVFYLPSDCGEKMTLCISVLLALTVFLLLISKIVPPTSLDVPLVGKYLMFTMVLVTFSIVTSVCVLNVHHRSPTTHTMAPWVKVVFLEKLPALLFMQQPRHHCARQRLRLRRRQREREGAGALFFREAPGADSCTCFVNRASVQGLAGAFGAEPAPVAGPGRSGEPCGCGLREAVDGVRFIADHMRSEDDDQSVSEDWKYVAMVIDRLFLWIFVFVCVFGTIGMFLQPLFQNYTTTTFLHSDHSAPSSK
Description: as §1

α7 nAChR = α7 nAChR (Homo sapiens, UniProt P36544); test: Binding at 10 μM to α7 nAChR (selectivity test)
Sequence of α7 nAChR (P36544 23-502): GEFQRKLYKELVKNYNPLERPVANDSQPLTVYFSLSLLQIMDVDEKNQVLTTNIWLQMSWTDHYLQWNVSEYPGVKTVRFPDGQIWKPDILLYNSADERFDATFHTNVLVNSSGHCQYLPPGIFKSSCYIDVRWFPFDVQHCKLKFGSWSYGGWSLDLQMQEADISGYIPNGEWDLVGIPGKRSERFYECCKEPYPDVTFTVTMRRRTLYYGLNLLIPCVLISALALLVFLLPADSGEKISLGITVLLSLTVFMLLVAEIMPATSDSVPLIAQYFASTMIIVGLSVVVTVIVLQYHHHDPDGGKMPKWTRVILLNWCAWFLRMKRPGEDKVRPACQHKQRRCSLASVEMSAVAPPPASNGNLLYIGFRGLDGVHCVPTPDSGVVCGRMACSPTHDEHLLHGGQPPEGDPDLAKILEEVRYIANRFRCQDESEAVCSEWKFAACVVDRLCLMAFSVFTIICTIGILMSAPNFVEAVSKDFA

mouse model of diabetes = test: Nephropathy in streptozotocin mouse model of diabetes (eNOS-/- mice), α7-nAchR blocker; type: in vivo; settings: blocker 2 mg/kg i.p. 5 days a week, 10 weeks; for Systolic BP: tail-cuff
Description: Normal mice express the α7-nAChR in both the proximal and distal tubule of the kidneys. Tests were conducted to determine the role of the α7-nAchR on the severity of nephropathy in a mouse model of diabetes. Diabetes mellitus (DM) was induced in all mice with streptozotocin (STZ). This test closely mimics diabetic […] in humans. Mice were either given nicotine (DN) in doses of […] in drinking water or tap water with no nicotine for a period of 10 weeks (DT). Targeted disruption of the endothelial nitric oxide synthase gene led to eNOS^-/- knockout in a group of mice to increase susceptibility of STZ in the mice. One group of eNOS^-/- knockout mice was also subjected to targeted disruption of the α7-nAchR gene, which led to eNOS^-/-/α7-nAchR^-/- double knockout mice (DN^-/- and DT^-/-). A separate group of eNOS^-/- mice also received a α7-nAchR blocker (DN+B and DT+B). The blocker used was Compound 17 at a dosage of 2 mg/kg given intraperitoneally for 5 days a week for a period of 10 weeks. Blood pressure was measured by tail-cuff method and urine was collected every 2 weeks for albuminuria.
All mice became diabetic after being administered STZ, and all mice were also hypertensive.

[2] = DN + B: diabetic eNOS-/- mice on nicotine
[3] = DT + B: diabetic eNOS-/- mice on tap water

SMILES | concentration at 2 h ([1]; brain, read-out: concentration in brain) [nM] | concentration at 2 h ([1]; plasma, read-out: concentration in plasma) [nM] | binding to muscle-type nAChRs (muscle-type nAChRs) | binding to the neuronal α4β2 nAChR (neuronal α4β2 nAChR) | binding to the α7 receptor (α7 nAChR) [%] | Albuminuria (mouse model of diabetes; [2]) [ng/ml/24 hr] | Blood Glucose (mouse model of diabetes; [2]) [mg/dL] | Systolic BP (mouse model of diabetes; [2]) [mmHg] | Albuminuria (mouse model of diabetes; [3]) [ng/ml/24 hr] | Blood Glucose (mouse model of diabetes; [3]) [mg/dL] | Systolic BP (mouse model of diabetes; [3]) [mmHg]
CN(CC1CC[N+](C)(Cc2ccccc2)CC1)C(=O)c1cn(Cc2ccccc2Cl)nn1 (centres unmarked) [Compound 16] | 150 | 200 | no detectable binding | no detectable binding | 92 |  |  |  |  |  | 
NS(=O)(=O)c1ccc(Cn2ncc(C(=O)NCC3CCN(Cc4ccccc4)CC3)n2)cc1 [Compound 17] |  |  |  |  |  | 35 ± 6 | 441 ± 43 | 142 ± 13 | 50 ± 13 | 354 ± 51 | 150 ± 11
